Assay results from ChEMBL document CHEMBL5532659, “Design, Synthesis, and Evaluation of Cephamycin-Based Antisporulation Agents targeting Clostridioides difficile” (J Med Chem, 2024).
Converted amounts (≈) assume the structure as drawn.

Assays:
Cryptococcus neoformans = test: Antimicrobial activity against Cryptococcus neoformans ATCC 208821 assessed as microbial growth inhibition incubated for 36 hrs by resazurin dye based assay; format: functional
Clostridioides difficile [1] = test: Antimicrobial activity against Clostridium difficile assessed as microbial growth inhibition incubated for 18 hrs; format: functional
Acinetobacter baumannii = test: Antimicrobial activity against Acinetobacter baumannii ATCC 19603 assessed as microbial growth inhibition incubated for 18 hrs; format: functional
Clostridioides difficile [2] = test: Anti-sporulation activity against Clostridium difficile M7404 assessed as fold reduction in spore count incubated overnight by absorbance based assay relative to control; format: functional
Erythrocyte = test: Hemolytic activity in human RBC incubated for 70 mins by absorbance based assay; format: toxicity, cell-based; conditions: 1.167 h
[3] = Inhibition of Clostridium difficile SpoVD using Boc-FL as substrate preincubated for 30 mins followed by substrate addition measured after 30 mins by FP assay; parameters: species or system Clostridioides difficile
Klebsiella pneumoniae = test: Antimicrobial activity against multidrug-resistant Klebsiella pneumoniae ATCC 700603 assessed as microbial growth inhibition incubated for 18 hrs; format: functional
Candida albicans = test: Antimicrobial activity against Candida albicans ATCC 90028 assessed as microbial growth inhibition incubated for 36 hrs by resazurin dye based assay; format: functional
[4] = Cytotoxicity against HEK293 cells incubated for 20 hrs by resazurin dye based assay; format: toxicity, cell-based; conditions: human
Escherichia coli = test: Antimicrobial activity against Escherichia coli ATCC 25922 assessed as microbial growth inhibition incubated for 18 hrs; format: functional
Pseudomonas aeruginosa = test: Antimicrobial activity against Pseudomonas aeruginosa ATCC 27853 assessed as microbial growth inhibition incubated for 18 hrs; format: functional
Staphylococcus aureus = test: Antimicrobial activity against methicillin-resistant Staphylococcus aureus ATCC 43300 assessed as microbial growth inhibition incubated for 18 hrs; format: functional

Row | Compound | MIC50 (Cryptococcus neoformans) | MIC50 (Clostridioides difficile [1]) | MIC50 (Acinetobacter baumannii) | fold change (FC) (Clostridioides difficile [2]) | HC10 (Erythrocyte) | IC50 [3] | MIC50 (Klebsiella pneumoniae) | MIC50 (Candida albicans) | CC50 at 20 h [4] | MIC50 (Escherichia coli) | MIC50 (Pseudomonas aeruginosa) | MIC50 (Staphylococcus aureus)
1 | CO[C@@]1(NC(=O)C2SC(=C(C(N)=O)C(=O)O)S2)C(=O)N2C(C(=O)O)=C(CSc3nnnn3C)CS[C@@H]21 (stereo not given in full) [CEFOTETAN] | > 32 mg/L | 20 mg/L (≈ 34.7 µM) | > 32 mg/L | 10000 | > 32 µg/mL | 0.015 µM | > 32 mg/L | > 32 mg/L | > 32 mg/L | 4 mg/L (≈ 6.95 µM) | > 32 mg/L | > 32 mg/L
2 | CO[C@@]1(NC(=O)Cn2cc(-c3ccc(C(=O)O)cc3)nn2)C(=O)N2C(C(=O)O)=C(CSc3nnnn3C)CS[C@@H]21 | > 32 mg/L | 10 mg/L (≈ 17 µM) | > 32 mg/L | 1000 | > 32 µg/mL | 0.115 µM | 32 mg/L (≈ 54.5 µM) | > 32 mg/L | > 32 mg/L | 32 mg/L (≈ 54.5 µM) | > 32 mg/L | 32 mg/L (≈ 54.5 µM)
3 | CO[C@@]1(NC(=O)Cn2cc(C(=O)O)nn2)C(=O)N2C(C(=O)O)=C(CSc3nnnn3C)CS[C@@H]21 | > 32 mg/L | 20 mg/L (≈ 39.1 µM) | > 32 mg/L | 100 | > 32 µg/mL |  | > 32 mg/L | > 32 mg/L | > 32 mg/L | 16 mg/L (≈ 31.3 µM) | > 32 mg/L | ≤ 0.25 mg/L
4 | CO[C@@]1(NC(=O)Cn2cc(-c3cccc(F)c3)nn2)C(=O)N2C(C(=O)O)=C(CSc3nnnn3C)CS[C@@H]21 | > 32 mg/L | 5 mg/L (≈ 8.9 µM) | > 32 mg/L | 1000 | > 32 µg/mL | 0.131 µM | > 32 mg/L | > 32 mg/L | 13.2 mg/L (≈ 23.5 µM) | 32 mg/L (≈ 57 µM) | > 32 mg/L | 32 mg/L (≈ 57 µM)
5 | CO[C@@]1(NC(=O)Cn2cc(-c3cccc(C(=O)O)c3)nn2)C(=O)N2C(C(=O)O)=C(CSc3nnnn3C)CS[C@@H]21 | > 32 mg/L | 5 mg/L (≈ 8.51 µM) | > 32 mg/L | 1000 | > 32 µg/mL | 0.069 µM | 32 mg/L (≈ 54.5 µM) | > 32 mg/L | > 32 mg/L | 8 mg/L (≈ 13.6 µM) | > 32 mg/L | 32 mg/L (≈ 54.5 µM)
6 | CO[C@@]1(NC(=O)Cn2cc(CCC(C)C)nn2)C(=O)N2C(C(=O)O)=C(CSc3nnnn3C)CS[C@@H]21 | > 32 mg/L | 5 mg/L (≈ 9.3 µM) | > 32 mg/L | 1000 | > 32 µg/mL | 0.142 µM | > 32 mg/L | > 32 mg/L | 16.1 mg/L (≈ 29.9 µM) | 32 mg/L (≈ 59.5 µM) | > 32 mg/L | 32 mg/L (≈ 59.5 µM)
7 | CO[C@@]1(NC(=O)Cn2cc(C3CCCCC3)nn2)C(=O)N2C(C(=O)O)=C(CSc3nnnn3C)CS[C@@H]21 | > 32 mg/L | 5 mg/L (≈ 9.1 µM) | > 32 mg/L | >100000 | 10 µg/mL | 0.09 µM | > 32 mg/L | > 32 mg/L | > 32 mg/L | 32 mg/L (≈ 58.2 µM) | > 32 mg/L | 32 mg/L (≈ 58.2 µM)
8 | CO[C@@]1(NC(=O)Cn2cc(-c3cccc4ccccc34)nn2)C(=O)N2C(C(=O)O)=C(CSc3nnnn3C)CS[C@@H]21 | > 32 mg/L | 40 mg/L (≈ 67.4 µM) | > 32 mg/L | >100000 | > 32 µg/mL | 0.086 µM | > 32 mg/L | > 32 mg/L | > 32 mg/L | 32 mg/L (≈ 53.9 µM) | > 32 mg/L | 8 mg/L (≈ 13.5 µM)
